Paper PMC8838521, “Antimicrobial, Cytotoxic and Mutagenic Activity of Gemini QAS Derivatives of 1,4:3,6-Dianhydro-L-iditol” (Molecules, 2022)
Like-named read-outs stand apart in the source and are kept apart here.

What was measured:
[1] = system: Candida albicans ATCC 10231; test: Antimicrobial activity, microdilution MIC, C. albicans; assay type: cell-based; conditions: for MIC: Candida albicans, ATCC10231, 24 h
Experimental: (§1) The antimicrobial potential of the tested agents was evaluated against two reference strains of bacteria: Staphylococcus aureus ATCC 25923 and Escherichia coli K12, two reference strains of pathogenic yeasts, Candida albicans ATCC10231 and Candida glabrata DSMZ11226, as well as 20 strains of clinical isolates of S. aureus collected from patients with skin and soft tissue infections (n = 8) and strains derived from subclinical bovine mastitis milk samples (n = 12). Four of these strains, two isolated from human infections and two isolated from bovine mastitis, were classified as MRSA (Methicillin-resistant Staphylococcus aureus). All of them were mecA positive and their methicillin resistance was confirmed with the disc diffusion assay. The remaining 16 strains were MSSA (Methicillin-sensitive Staphylococcus aureus). The assays were performed using a serial, two-fold dilution method in 96-well microtiter plates under conditions recommended by the Clinical and Laboratory Standards Institute (CLSI, Pittsburgh, PA, USA). The aim of this procedure was the determination of the MIC parameter (Minimum Inhibitory Concentration)—the minimum concentration of a tested agent capable to inhibit the growth of a specified strain of microorganism. The agents were solubilized in deionized, sterile water to a final concentration of […]. Subsequently, solutions were mixed (1:1 (v/v)) with 2 × concentrated liquid medium, Mueller-Hinton Broth 2—cation adjusted (MHB2) for evaluation of antibacterial activity and RPMI in the case of evaluation of the antifungal activity. […] Subsequently, the solutions were mixed with MHB2 or RPMI medium to get the final concentration of 8.192 mg/mL (8192 µg/mL). In the next step, the serial, two-fold dilutions of the tested agents (over the range of concentrations from 8192 to 8 µg/mL for reference strains of bacteria and yeasts and from 512 to 1.0 µg/mL for clinical isolates of S. aureus) were prepared in 96-well microtitration plates in the final volume of 100 μL of the appropriate medium.
(§2) The pure cultures of yeast strains were grown on the Sabouraud Dextrose Agar (SDA) for 18–24 h at 37 °C. Suspensions of the microorganisms were prepared by taking one loop of pure culture into sterile water and adjusting optical density to 0.1 at 660 nm and further 50-fold dilution in RPMI 1640 medium resulting in cells concentration of approximate 2 × 10^4 CFU/mL. One hundred μL of that suspension was inoculated to the wells of the microtitration plate containing appropriate dilutions of the agents. The positive growth control of each strain (both bacteria and yeasts) was performed in the wells without the tested substances. The negative control containing only the media was included in each assay. Microtiter plates were incubated at 37 °C for 24 h. Following the incubation period, determination of the MIC values of the tested agents was carried out by measuring the absorbance at 531 nm using a Victor^3 microplate reader (Perkin Elmer, Inc., Waltham, MA, USA). The lowest concentration of the agent causing inhibition of growth equal to or higher than 90% (MIC90) of growth control was taken as the MIC value. Each test was repeated three times.

[2] = system: Candida glabrata DSMZ 11226; test: Antimicrobial activity, microdilution MIC, C. glabrata; assay type: cell-based; conditions: for MIC: Nakaseomyces glabratus, DSMZ11226, 24 h
Experimental: as §1, §2

[3] = system: Staphylococcus aureus ATCC 25923; test: Antimicrobial activity, microdilution MIC, S. aureus reference strain; assay type: cell-based; conditions: for MIC: Staphylococcus aureus, ATCC25923, 24 h
Experimental: as §1
(§3) The pure bacterial cultures of (both the reference and clinical strains) were grown on the Mueller-Hinton Agar (MHA) for 18–24 h at 37 °C. A small amount of the biomass of the culture of each strain of microorganisms was suspended in the sterile PBS (phosphate buffered saline, pH 7.4 at 25 °C, purchased from Sigma) solution to get an optical density OD600 = 0.13 (equal to the cells concentration approximately 1 × 10^8 CFU/mL). The obtained suspensions of the cells were next diluted 1:100 (v/v) in the MHB2 medium. One hundred µL of the cells’ suspension was finally loaded into the wells of plates prepared in advance, which contained 100 µL of two-fold dilutions of the tested agents (the final concentration of the bacterial cells in all wells was approximately 5 × 10^5 CFU/mL).
as §2, with “times. […]” for “times.”

Escherichia coli K12 = test: Antimicrobial activity, microdilution MIC, E. coli; assay type: cell-based; conditions: for MIC: Escherichia coli, K12, 24 h
Experimental: as §1, §3
as §2, with “times. […]” for “times.”

[4] = system: human keratinocytes (HaCaT cell line); test: Cytotoxicity, MTT assay; assay type: cell-based; conditions: Homo sapiens, HaCaT, read-out: HaCaT IC50
Experimental: To assess the cytotoxicity of QAS (IC50), the MTT assay on 96-well polystyrene plates was performed for human keratinocytes (HaCaT, Elabscience Biotechnology Inc., Houston, Texas, USA). The assay utilizes colorimetric determination of the cell metabolic activity and the color intensity reflects the number of live cells that can be measured spectrophotometrically. The cell line was cultured in a Dulbecco’s modified Eagle Medium (Invitrogen) supplemented with 10% fetal bovine serum (Sigma Aldrich) (v/v), 100 units/mL of penicillin, 100 μg/mL of streptomycin, and 2 mM L-glutamine and was stored at 37 °C in a humidified 5% CO2 incubator. Briefly, a day after plating of 500 cells per well, a series of concentrations (0.5–200 μg/mL) of the test compounds was applied. DMSO was added to the control cells at a final concentration of 1.0% (v/v), which was related to the maximal concentration of the solvent compounds used in the experiment. After 24 h of incubation with the QAS at 37 °C (humidified 5% CO2 incubator), a medium containing 1 mg/mL of MTT (3-(4,5-dimethylthiazol-2-yl)-2,5-diphenyltetrazolium bromide) was added to the wells up to a final concentration of 0.5 mg/mL. Subsequently, the plates were incubated at 37 °C for 4 h. Then, the medium was removed by suction, and the formazan product was solubilized with DMSO. The background absorbance at 630 nm was subtracted from that at 570 nm for each well (Epoch, BioTek Instruments, Winooski, VT, USA). Six replicates were conducted for each concentration. All experiments were repeated at least twice and the resulting IC50 values were calculated with GraFit 7 software (v. 7.0, Erithacus, Berkley, CA, USA).

[5] = system: Salmonella typhimurium TA98 strain; conditions: TA98, no metabolic activation
Experimental: A Salmonella mutagenicity test was performed with Salmonella typhimurium TA98 strain (Xenometrics AG, Allschwil, Switzerland) without metabolic activation, following the procedure by Mortelmans and Zeiger [52], with modifications reported Golunski et al. [53] […] Subsequently, the mixture was centrifuged, bacterial pellet washed with 0.75% NaCl and resuspended in 300 µL of 0.75% NaCl solution containing 0.1 µmol each of histidine and biotin, and it was then spread on a glucose minimal (GM) plate. […] All experiments were performed in triplicate. The anticancer drug doxorubicin at 90 ng/plate with known mutagenic effect towards S. typhimurium TA98 was used as a positive control.

[6] = MIC90, 24 h, RPMI, read-out: MIC C. albicans ATCC 10231
[7] = MIC90, 24 h, RPMI, read-out: MIC C. glabrata DSMZ 11226
[8] = MIC90, 24 h, MHB2, read-out: MIC S. aureus ATCC 25923
[9] = MIC90, 24 h, MHB2, read-out: MIC E. coli K12

| Structure (SMILES) | MIC ([1]; read-out: MIC C. albicans ATCC 10231, MIC90, 24 h, RPMI) | MIC C. albicans ATCC 10231 ([1]; MIC90, 24 h, RPMI) | MIC C. glabrata DSMZ 11226 ([2]; MIC90, 24 h, RPMI) | MIC ([2]; read-out: MIC C. glabrata DSMZ 11226, MIC90, 24 h, RPMI) | MIC S. aureus ATCC 25923 ([3]; MIC90, 24 h, MHB2) | MIC ([3]; read-out: MIC S. aureus ATCC 25923, MIC90, 24 h, MHB2) | MIC (Escherichia coli K12; read-out: MIC E. coli K12, MIC90, 24 h, MHB2) | MIC E. coli K12 (Escherichia coli K12; MIC90, 24 h, MHB2) | IC50 ([4]; 24 h) | Number of Revertants ([5]; concentration 4 µg/plate) | Number of Revertants ([5]; concentration 20 µg/plate) | Number of Revertants ([5]; concentration 100 µg/plate) | Number of Revertants ([5]; concentration 500 µg/plate) | Number of Revertants ([5]; concentration 2000 µg/plate) | MIC [1, 6] | MIC [2, 7] | MIC [3, 8] | MIC (Escherichia coli K12; [9]) | IC50 ([4]; MTT, 24 h incubation) |
| --- | --- | --- | --- | --- | --- | --- | --- | --- | --- | --- | --- | --- | --- | --- | --- | --- | --- | --- | --- |
| C[N+](C)(C)C1COC2C1OCC2[N+](C)(C)C (centres unmarked) [QAS 7] | > 4000 µg/mL | >4096 µg/mL | >4096 µg/mL | > 4000 µg/mL | >4096 µg/mL | > 4000 µg/mL | > 4000 µg/mL | >4096 µg/mL | > 100 µg/mL | 11.0 ± 3.0 | 10.7 ± 4.9 | 11.3 ± 3.5 | 13.7 ± 1.5 | 11.3 ± 3.2 |  |  |  |  |  |
| Cn1cc[n+](C2COC3C2OCC3[n+]2ccn(C)c2)c1 [QAS 6, N,N’-(1,4:3,6-Dianhydro-2,5-dideoxy-L-iditol-2,5-diyl)-bis(N-methylimidazolium) Ditrifluoromethanesulfonate] |  | >4096 µg/mL | >4096 µg/mL |  | >4096 µg/mL |  |  | >4096 µg/mL |  | 13.3 ± 3.2 | 10.0 ± 2.0 | 9.0 ± 3.6 | 16.0 ± 6.2 | 13.7 ± 2.9 | > 4000 µg/mL | > 4000 µg/mL | > 4000 µg/mL | > 4000 µg/mL | > 100 µg/mL |
| c1cc[n+](C2COC3C2OCC3[n+]2ccccc2)cc1 (centres unmarked) [QAS 3] |  | >4096 µg/mL | >4096 µg/mL |  | >4096 µg/mL |  |  | >4096 µg/mL |  | 7.3 ± 2.5 | 11.0 ± 1.0 | 10.6 ± 2.1 | 8.7 ± 1.5 | 7.3 ± 2.5 | > 4000 µg/mL | > 4000 µg/mL | > 4000 µg/mL | > 4000 µg/mL | > 100 µg/mL |
| CN(C)c1cc[n+](C2COC3C2OCC3[n+]2ccc(N(C)C)cc2)cc1 (centres unmarked) [QAS 4] |  | >4096 µg/mL | >4096 µg/mL |  | >4096 µg/mL |  |  | >4096 µg/mL |  | 8.3 ± 0.6 | 9.7 ± 1.5 | 10.0 ± 2.6 | 7.0 ± 3.5 | 6.0 ± 2.6 | > 4000 µg/mL | > 4000 µg/mL | > 4000 µg/mL | > 4000 µg/mL | > 100 µg/mL |
